Measured values published in patent US20080064689A1, “3-[4-(6-Pyridin-3-Yl)-3-Phenyl] -5-(1H-1,2,3-Triazol-1-Ylmethyl)-1,3-Oxazolidin-2-Ones as Antibacterial Agents” (AstraZeneca AB, priority 2004, published 2008).
In brackets after ≈: the same amount, converted by molar mass.

Assays:
[1] = test system: Staphylococcus aureus MSQS (methicillin sensitive and quinolone sensitive); assay: MIC, agar dilution, Staphylococcus aureus MSQS; format: cell-based; details: inoculum 10^4 CFU/spot, 37° C., 24 hours
Method: (§1) The following results were obtained on a standard in-vitro test system. The activity is described in terms of the minimum inhibitory concentration (MIC) determined by the agar-dilution technique with an inoculum size of 10^4 CFU/spot. Typically, compounds are active in the range 0.01 to 256 μg/ml.
(§2) Staphylococci were tested on agar, using an inoculum of 10^4 CFU/spot and an incubation temperature of 37° C. for 24 hours—standard test conditions for the expression of methicillin resistance.

[2] = test system: Staphylococcus aureus MRQR (methicillin resistant and quinolone resistant); assay: MIC, agar dilution, Staphylococcus aureus MRQR; format: cell-based; details: inoculum 10^4 CFU/spot, 37° C., 24 hours
Method: as §1, §2

[3] = test system: Streptococcus pneumoniae; assay: MIC, agar dilution, Streptococcus pneumoniae; format: cell-based; details: agar with 5% defibrinated horse blood, 10^4 CFU/spot, 37° C., 5% carbon dioxide, 48 hours
Method: as §1
(§3) Streptococci and enterococci were tested on agar supplemented with 5% defibrinated horse blood, an inoculum of 10^4 CFU/spot and an incubation temperature of 37° C. in an atmosphere of 5% carbon dioxide for 48 hours—blood is required for the growth of some of the test organisms. Fastidious Gram negative organisms were tested in Mueller-Hinton broth, supplemented with hemin and NAD, grown aerobically for 24 hours at 37° C., and with an innoculum of 5×10^4 CFU/well.

[4] = test system: Haemophilus influenzae; assay: MIC, Haemophilus influenzae (fastidious Gram negative, broth); format: cell-based; details: Mueller-Hinton broth with hemin and NAD, 24 hours at 37° C., 5×10^4 CFU/well
Method: as §1, §3

[5] = test system: Moraxella catarrhalis; assay: MIC, Moraxella catarrhalis (fastidious Gram negative, broth); format: cell-based; details: Mueller-Hinton broth with hemin and NAD, 24 hours at 37° C., 5×10^4 CFU/well
Method: as §1, §3

[6] = test system: Linezolid Resistant Streptococcus pneumoniae; assay: MIC, agar dilution, Linezolid Resistant Streptococcus pneumoniae; format: cell-based; details: agar with 5% defibrinated horse blood, 10^4 CFU/spot, 37° C., 5% carbon dioxide, 48 hours
Method: as §1, §3

[7] = target: T1, MAO-A (Homo sapiens, UniProt P21397); assay: MAO-A inhibition, standard in-vitro assay, human liver enzyme expressed in yeast; format: biochemical; details: read-out: Ki value against MAO-A
T1 construct: made in house; host or cells: yeast
T1 sequence (P21397 1-527): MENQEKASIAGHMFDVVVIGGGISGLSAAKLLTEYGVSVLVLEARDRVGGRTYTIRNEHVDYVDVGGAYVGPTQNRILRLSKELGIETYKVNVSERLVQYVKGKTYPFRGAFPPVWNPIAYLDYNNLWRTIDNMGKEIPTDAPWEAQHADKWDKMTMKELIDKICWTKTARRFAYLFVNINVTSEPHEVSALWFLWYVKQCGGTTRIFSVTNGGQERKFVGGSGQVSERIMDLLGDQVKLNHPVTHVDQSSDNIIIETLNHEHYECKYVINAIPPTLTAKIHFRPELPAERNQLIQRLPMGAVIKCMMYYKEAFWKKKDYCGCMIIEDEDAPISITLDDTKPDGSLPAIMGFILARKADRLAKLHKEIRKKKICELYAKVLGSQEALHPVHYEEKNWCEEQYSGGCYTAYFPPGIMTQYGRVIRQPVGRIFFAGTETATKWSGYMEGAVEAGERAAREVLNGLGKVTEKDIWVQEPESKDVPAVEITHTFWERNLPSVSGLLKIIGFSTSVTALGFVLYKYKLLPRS
Method: The activity of the compounds of the invention against MAO-A was tested using a standard in-vitro assay based on human liver enzyme expressed in yeast as described in Biochem. Biophys. Res. Commun. 1991, 181, 1084-1088.

`O=C1O[C@@H](Cn2ccnn2)CN1c1ccc(-c2ccc(C3=NO[C@H](CN4CCOCC4)C3)nc2)c(F)c1` [Example 3, (5R)-3-(3-Fluoro-4-{6-[(5S)-5-(morpholin-4-ylmethyl)-4,5-dihydroisoxazol-3-yl]pyridin-3-yl}phenyl)-5-(1H-1,2,3-triazol-1-ylmethyl)-1,3-oxazolidin-2-one] gave an MIC [1] of 0.5 µg/mL (≈ 0.985 µM), an MIC [2] of 0.5 µg/mL (≈ 0.985 µM) and an MIC [3] of 0.13 µg/mL (≈ 0.256 µM). It also gave an MIC [4] of 8 µg/mL (≈ 15.8 µM), an MIC [5] of 1 µg/mL (≈ 1.97 µM) and an MIC [6] of 1 µg/mL (≈ 1.97 µM). The Ki [7] was greater than 22000 nM and the melting point was 230 °C.

For `CN(CC(=O)O)CC(=O)N(C)C[C@@H]1CC(c2ccc(-c3ccc(N4C[C@H](Cn5ccnn5)OC4=O)cc3F)cn2)=NO1` [Example 24, N-{2-[{[(5S)-3-(5-{2-Fluoro-4-[(5R)-2-oxo-5-(1H-1,2,3-triazol-1-ylmethyl)-1,3-oxazolidin-3-yl]phenyl}pyridin-2-yl)-4,5-dihydroisoxazol-5-yl]methyl}(methyl)amino]-2-oxoethyl}-N-methylglycine], the melting point was 135 to 145 °C.

For `O=C(O)CNCC(=O)NC[C@@H]1CC(c2ccc(-c3ccc(N4C[C@H](Cn5ccnn5)OC4=O)cc3F)cn2)=NO1` [Example 25, N-[2-({[(5S)-3-(5-{2-Fluoro-4-[(5R)-2-oxo-5-(1H-1,2,3-triazol-1-ylmethyl)-1,3-oxazolidin-3-yl]phenyl}pyridin-2-yl)-4,5-dihydroisoxazol-5-yl]methyl}amino)-2-oxoethyl]glycine], the melting point was 200 to 210 °C.

`O=C1O[C@@H](Cn2ccnn2)CN1c1ccc(-c2ccc(C3=NO[C@H](Cn4ccnc4)C3)nc2)c(F)c1` [Example 26, (5R)-3-(3-Fluoro-4-{6-[(5S)-5-(1H-imidazol-1-ylmethyl)-4,5-dihydroisoxazol-3-yl]pyridin-3-yl}phenyl)-5-(1H-1,2,3-triazol-1-ylmethyl)-1,3-oxazolidin-2-one] showed a melting point of 239 to 242 °C.

Compound `CN(CC(=O)O)CC(=O)NC[C@@H]1CC(c2ccc(-c3ccc(N4C[C@H](Cn5ccnn5)OC4=O)cc3F)cn2)=NO1` [Example 27, N-[2-({[(5S)-3-(5-{2-Fluoro-4-[(5R)-2-oxo-5-(1H-1,2,3-triazol-1-ylmethyl)-1,3-oxazolidin-3-yl]phenyl}pyridin-2-yl)-4,5-dihydroisoxazol-5-yl]methyl}amino)-2-oxoethyl]-N-methylglycine] has a melting point of 185 to 188 °C.

Compound `N[C@@H](CC(=O)O)C(=O)NC[C@@H]1CC(c2ccc(-c3ccc(N4C[C@H](Cn5ccnn5)OC4=O)cc3F)cn2)=NO1` [Example 28, N^1-{[(5S)-3-(5-{2-Fluoro-4-[(5R)-2-oxo-5-(1H-1,2,3-triazol-1-ylmethyl)-1,3-oxazolidin-3-yl]phenyl}pyridin-2-yl)-4,5-dihydroisoxazol-5-yl]methyl}-L-α-asparagine] has a melting point of 224 to 226 °C.

With `NC[C@@H]1CC(c2ccc(-c3ccc(N4C[C@H](Cn5ccnn5)OC4=O)cc3F)cn2)=NO1` [Reference Example 16, (5R)-3-(4-{6-[(5S)-5-(Aminomethyl)-4,5-dihydroisoxazol-3-yl]pyridin-3-yl}-3-fluorophenyl)-5-(1H-1,2,3-triazol-1-ylmethyl)-1,3-oxazolidin-2-one] the Ki [7] was 350 nM and the melting point was 119 to 122 °C.
